# What was measured:
# human ORL-1 receptor = biological target: T1, human ORL-1 receptor (Homo sapiens, UniProt P41146); assay: [35S]GTPγS functional assay with ORL-1 receptor membranes; assay type: biochemical; settings: for Emax: [35S]GTPγS functional assay, NC = 100
# T1 construct: host or cells: recombinant HEK-293 cells
# Experimental: Filter plates were subsequently dried at 50° C. for 2-3 hours. […] 3.0.
# [1] = biological target: human opioid receptor-like (ORL-1) receptor (Homo sapiens, UniProt P41146); assay type: binding
# Sequence of human opioid receptor-like (ORL-1) receptor (P41146 whole entry): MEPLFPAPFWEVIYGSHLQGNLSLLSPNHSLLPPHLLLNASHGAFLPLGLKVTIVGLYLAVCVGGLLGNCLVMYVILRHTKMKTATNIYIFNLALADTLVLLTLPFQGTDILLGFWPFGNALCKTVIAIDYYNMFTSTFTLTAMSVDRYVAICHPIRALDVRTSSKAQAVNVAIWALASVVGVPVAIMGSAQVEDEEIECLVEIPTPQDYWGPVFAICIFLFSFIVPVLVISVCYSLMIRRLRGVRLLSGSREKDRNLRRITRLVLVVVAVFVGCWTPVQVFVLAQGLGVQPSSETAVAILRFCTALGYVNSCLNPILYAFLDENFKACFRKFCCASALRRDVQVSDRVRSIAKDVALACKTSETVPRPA
# T1 sequence (P41146 whole entry): as above
SMILES,Emax (human ORL-1 receptor) [%],affinity compared with NC [1],"agonist character at ORL-1 (human ORL-1 receptor; functional assay, in words)",potency compared with NC (human ORL-1 receptor; in words)
CC(C)C[C@H](NC(=O)[C@H](CCCCN)NC(=O)[C@H](CCCNC(=N)N)NC(=O)[C@H](C)NC(=O)[C@H](CO)NC(=O)[C@H](CCCCN)NC(=O)[C@H](CCCNC(=N)N)NC(=O)C(C)(C)NC(=O)CNC(=O)[C@@H](NC(=O)[C@H](Cc1ccccc1)NC(=O)CNC(=O)CNC(=O)[C@@H](N)Cc1ccccc1)[C@@H](C)O)C(=O)N[C@@H](C)C(=O)N[C@@H](CC(N)=O)C(=O)N[C@@H](CCC(N)=O)C(N)=O [IA],82,–,–,–
CC(C)C[C@H](NC(=O)[C@H](CCCCN)NC(=O)[C@H](CCCNC(=N)N)NC(=O)C(C)(C)NC(=O)[C@H](CO)NC(=O)[C@H](CCCCN)NC(=O)[C@H](CCCNC(=N)N)NC(=O)[C@H](C)NC(=O)CNC(=O)[C@@H](NC(=O)[C@H](Cc1ccccc1)NC(=O)CNC(=O)CNC(=O)[C@@H](N)Cc1ccccc1)[C@@H](C)O)C(=O)N[C@@H](C)C(=O)N[C@@H](CC(N)=O)C(=O)N[C@@H](CCC(N)=O)C(N)=O [IIA],82,–,–,–
CC(C)C[C@H](NC(=O)[C@H](CCCCN)NC(=O)[C@H](CCCNC(=N)N)NC(=O)[C@H](C)NC(=O)[C@H](CO)NC(=O)[C@H](CCCCN)NC(=O)[C@H](CCCNC(=N)N)NC(=O)[C@H](C)NC(=O)CNC(=O)[C@@H](NC(=O)[C@H](Cc1ccccc1)NC(=O)CNC(=O)CNC(=O)[C@@H](N)Cc1ccccc1)[C@@H](C)O)C(=O)NC(C)(C)C(=O)N[C@@H](CC(N)=O)C(=O)N[C@@H](CCC(N)=O)C(N)=O [IIIA],97,–,–,–
CC(C)C[C@H](NC(=O)[C@H](CCCCN)NC(=O)[C@H](CCCNC(=N)N)NC(=O)[C@H](C)NC(=O)[C@H](CO)NC(=O)[C@H](CCCCN)NC(=O)[C@H](CCCNC(=N)N)NC(=O)[C@H](C)NC(=O)CNC(=O)[C@@H](NC(=O)[C@H](Cc1ccccc1)NC(=O)CNC(=O)CNC(=O)[C@@H](N)Cc1ccccc1)[C@@H](C)O)C(=O)NC(C)(C)C(=O)N[C@@H](CC(N)=O)C(=O)N[C@@H](CCC(N)=O)C(=O)O [III],91,–,–,–
CC(C)C[C@H](NC(=O)[C@H](CCCCN)NC(=O)[C@H](CCCNC(=N)N)NC(=O)C(C)(C)NC(=O)[C@H](CO)NC(=O)[C@H](CCCCN)NC(=O)[C@H](CCCNC(=N)N)NC(=O)[C@H](C)NC(=O)CNC(=O)[C@@H](NC(=O)[C@H](Cc1ccccc1)NC(=O)CNC(=O)CNC(=O)[C@@H](N)Cc1ccccc1)[C@@H](C)O)C(=O)N[C@@H](C)C(=O)N[C@@H](CC(N)=O)C(=O)N[C@@H](CCC(N)=O)C(=O)O [II],96,–,–,–
CC(C)C[C@H](NC(=O)[C@H](CCCCN)NC(=O)[C@H](CCCNC(=N)N)NC(=O)[C@H](C)NC(=O)[C@H](CO)NC(=O)[C@H](CCCCN)NC(=O)[C@H](CCCNC(=N)N)NC(=O)C(C)(C)NC(=O)CNC(=O)[C@@H](NC(=O)[C@H](Cc1ccccc1)NC(=O)CNC(=O)CNC(=O)[C@@H](N)Cc1ccccc1)[C@@H](C)O)C(=O)N[C@@H](C)C(=O)N[C@@H](CC(N)=O)C(=O)N[C@@H](CCC(N)=O)C(=O)O [I],97,–,–,–
"CC(C)C[C@H](NC(=O)[C@H](CCCCN)NC(=O)[C@H](CCCNC(=N)N)NC(=O)C(C)(C)NC(=O)[C@H](CO)NC(=O)[C@H](CCCCN)NC(=O)[C@H](CCCNC(=N)N)NC(=O)C(C)(C)NC(=O)CNC(=O)[C@@H](NC(=O)[C@H](Cc1ccccc1)NC(=O)CNC(=O)CNC(=O)[C@@H](N)Cc1ccccc1)[C@@H](C)O)C(=O)N[C@@H](C)C(=O)N[C@@H](CC(N)=O)C(=O)N[C@@H](CCC(N)=O)C(N)=O [VIIA, FGGFTG(AIB)RKS(AIB)RKLANQ-NH2]",90,significantly higher affinity,efficacious agonist,more potent

# Source: patent publication US20040259775A1, “Conformationally constrained peptides that bind the ORL-1 receptor” (EURO-CELTIQUE S.A., priority 2002, published 2004)
